Where “and” joins values, the source holds several entries; their conditions need not be identical. Equal values may be shown once.
Key:
GT1a (H77) HCV replicon = test: HCV replicon assay, wild type GT1a (H77), luciferase based, stable format; assay type: cell-based, hepatitis C virus; conditions: Hepatitis C virus, GT1A, Huh-7, 72 h, Huh-7 cells
Protocol: (§1) The antiviral activity of the test compounds was assessed in the wild type GT1b (Con1), GT1a (H77), and GT1b/2a, GT1b/3a, GT1b/4a and GT1b/5a NS5B chimeric replicons, as well as the NS5B mutant replicons listed in Table 2a and 2b.
(§2) All the replicon assays were luciferase based in Huh-7 cells, either in stable format (GT1b and GT1a) or by transient transfection by electroporation (chimeric and mutant replicons). For a standard HCV replicon assay, stable or transiently transfected Huh-7 cells were seeded in 96-well plates (5,000 cells/well), cultured in DMEM containing 10% FBS, and incubated at 37° C., 5% CO2. On the following day, test compounds were diluted with assay media and added to the appropriate wells (final DMSO concentration in the cell culture medium was 0.5%). Assay reference positive control was included in each run to ensure assay performance. Cells were incubated at 37° C., 5% CO2 for 72 hours, at which time the cells were still sub-confluent. The antiviral activity was determined by measuring replicon reporter firefly luciferase activity using Bright Glo kit in accordance with the protocol provided by the supplier (Promega). The toxicity of the test compounds was assessed by CytoTox-1 cell proliferation assay (Promega). The half maximal effective concentration (EC50) and the half maximal toxic concentration (TC50) values were calculated using the GraphPad Prism software.

GT1b (Con1) HCV replicon = test: HCV replicon assay, wild type GT1b (Con1), luciferase based, stable format; assay type: cell-based, hepatitis C virus; conditions: Huh-7 cells, 72 hours
Protocol: as §1, §2

[1] = system: GT1b/2a NS5B chimeric replicon; test: HCV replicon assay, GT1b/2a NS5B chimeric replicon, transient transfection; assay type: cell-based, hepatitis C virus; conditions: Hepatitis C virus, Huh-7, 72 h, read-out: GT2a EC50, GT1b/2a NS5B chimeric replicon, Huh-7 cells, luciferase, 72 hours
Protocol: as §1
(§3) To generate HCV NS5B chimeric replicons, the GT1 b replicon was used as a backbone with the NS5B gene replaced with the NS5B gene of GT2a, GT3a, GT4a and GT5a derived from clinical isolates. These NS5B genes were cloned into the GT1b backbone and were confirmed by sequencing.
as §2

[2] = system: GT1b/3a NS5B chimeric replicon; test: HCV replicon assay, GT1b/3a NS5B chimeric replicon, transient transfection; assay type: cell-based, hepatitis C virus; conditions: read-out: GT3a EC50; GT1b/3a NS5B chimeric replicon, Huh-7 cells, luciferase, 72 hours
Protocol: as §1, §3, §2

[3] = system: GT1b/4a NS5B chimeric replicon; test: HCV replicon assay, GT1b/4a NS5B chimeric replicon, transient transfection; assay type: cell-based, hepatitis C virus; conditions: Hepatitis C virus, Huh-7, 72 h, read-out: GT4a EC50, GT1b/4a NS5B chimeric replicon, Huh-7 cells, luciferase, 72 hours
Protocol: as §1, §3, §2

[4] = system: GT1b/5a NS5B chimeric replicon; test: HCV replicon assay, GT1b/5a NS5B chimeric replicon, transient transfection; assay type: cell-based, hepatitis C virus; conditions: Hepatitis C virus, Huh-7, 72 h, read-out: GT5a EC50, GT1b/5a NS5B chimeric replicon, Huh-7 cells, luciferase, 72 hours
Protocol: as §1, §3, §2

Huh-7 cells = test: Toxicity by CytoTox-1 cell proliferation assay (TC50) and selectivity index; assay type: cell-based; conditions: TC50 by CytoTox-1 cell proliferation assay over replicon EC50, Huh-7 cells
Protocol: as §2

[5] = system: GT1a S282T NS5B mutant replicon; test: HCV NS5B mutant replicon assay, GT1a S282T; assay type: cell-based; conditions: Hepatitis C virus, Huh-7, 72 h, read-out: GT1a S282T EC50
Protocol: as §1
(§4) The HCV replicon mutants were generated by site-directed mutagenesis (SDM). The SDM was performed by PCR and the PCR fragments were inserted into the backbone replicon construct. The inserted PCR fragments and the mutants were confirmed by sequencing.
as §2

[6] = system: GT1a L159F NS5B mutant replicon; test: HCV NS5B mutant replicon assay, GT1a L159F; assay type: cell-based; conditions: Hepatitis C virus, Huh-7, 72 h, read-out: GT1a L159F EC50
Protocol: as §1, §4, §2

[7] = system: GT1b S282T NS5B mutant replicon; test: HCV NS5B mutant replicon assay, GT1b S282T; assay type: cell-based; conditions: Hepatitis C virus, Huh-7, 72 h, read-out: GT1b S282T EC50
Protocol: as §1, §4, §2

[8] = system: GT1b S96T NS5B mutant replicon; test: HCV NS5B mutant replicon assay, GT1b S96T; assay type: cell-based; conditions: Hepatitis C virus, Huh-7, 72 h, read-out: GT1b S96T EC50
Protocol: as §1, §4, §2

[9] = system: GT1b L159F NS5B mutant replicon; test: HCV NS5B mutant replicon assay, GT1b L159F; assay type: cell-based; conditions: Hepatitis C virus, Huh-7, 72 h, read-out: GT1b L159F EC50
Protocol: as §1, §4, §2

[10] = system: GT1b C316N NS5B mutant replicon; test: HCV NS5B mutant replicon assay, GT1b C316N; assay type: cell-based; conditions: Hepatitis C virus, Huh-7, 72 h, read-out: GT1b C316N EC50
Protocol: as §1, §4, §2

[11] = system: GT3a S282T NS5B mutant replicon; test: HCV NS5B mutant replicon assay, GT3a S282T; assay type: cell-based; conditions: Hepatitis C virus, Huh-7, 72 h, read-out: GT3a S282T EC50
Protocol: as §1, §3, §4, §2

[12] = system: GT3a L159F NS5B mutant replicon; test: HCV NS5B mutant replicon assay, GT3a L159F; assay type: cell-based; conditions: Hepatitis C virus, Huh-7, 72 h, read-out: GT3a L159F EC50
Protocol: as §1, §3, §4, §2

[13] = system: GT3a V321A NS5B mutant replicon; test: HCV NS5B mutant replicon assay, GT3a V321A; assay type: cell-based; conditions: Hepatitis C virus, Huh-7, 72 h, read-out: GT3a V321A EC50
Protocol: as §1, §3, §4, §2

[14] = Nucleoside phosphoester stability in simulated gastric fluid; assay type: in vitro ADME; conditions: simulated gastric fluid pH 1.2, 2 μM, 37° C.
Protocol: Test compounds at 2 μM were incubated at 37° C. with simulated gastric fluid (SGF, 0.2% (w/v) sodium chloride in 0.7% (v/v) hydrochloric acid, deionized water, 0.3% pepsin (w/v), pH 1.2). Duplicate samples were used. Samples were removed at 0, 15, 30, 60, 120, 360 and 1440 min, immediately mixed with cold acetonitrile containing internal standard (IS), and stored at −80° C. before analysis. Omeprazole was used as a positive control. Samples were analyzed by LC/MS/MS method, and disappearance of test compound was assessed by comparison of peak area ratios of analyte/IS and reported as % test compound remaining at each time point.

[15] = Nucleoside phosphoester stability in simulated intestinal fluid; assay type: in vitro ADME; conditions: simulated gi fluid, 2 μM, pH 6.8
Protocol: Test compounds at 2 μM were incubated at 37° C. with simulated intestinal fluid (SIF), which contains 0.68% (w/v) monobasic potassium phosphate and 1% (w/v) pancreatin in ultra-pure water (pH 6.8). Duplicate samples were used. Samples were removed at 0, 15, 30, 60, 120, 360 and 1440 min, immediately mixed with cold acetonitrile containing an internal standard (IS), and stored at −80° C. before analysis. Chlorambucil was used as a positive control. Samples were analyzed by a LC/MS/MS method, and disappearance of test compound was assessed by comparison of peak area ratios of analyte/IS and reported as % test compound remaining at each time point.

CC(C)(C)SSc1ccccc1CCOP1(=O)OC[C@H]2O[C@@H](n3ccc(N)nc3=O)[C@](C)(F)[C@@H]2O1 (single isomer, unassigned) [Compound 9A]
EC50 (GT1a (H77) HCV replicon): 3 to 6 nM
EC50 (GT1b (Con1) HCV replicon): 7 nM and 4 to 5 nM
EC50 [1]: 3 nM
EC50 [2]: 6 nM and 4 to 6 nM
EC50 [3]: 3 nM
EC50 [4]: 2 nM
Selectivity Index (TC50/EC50) (Huh-7 cells): >500
EC50 [5]: 6 to 35 nM
EC50 [6]: 10 nM
EC50 [7]: 23 to 25 nM
EC50 [8]: 7 nM
EC50 [9]: 9 nM
EC50 [10]: 4 nM
EC50 [11]: 6 to 18 nM
EC50 [12]: 8 nM
EC50 [13]: 12 nM
% Remaining ([14]; 0 min): 100.00%
% Remaining ([14]; 15 min): 107.89%
% Remaining ([14]; 30 min): 102.51%
% Remaining ([14]; 60 min): 97.63%
% Remaining ([14]; 120 min): 94.89%
% Remaining ([14]; 360 min): 91.06%
% Remaining ([14]; 1440 min): 76.22%
% Remaining ([15]; 0 h): 100.00%
% Remaining ([15]; 0.25 h): 99.21%
% Remaining ([15]; 0.5 h): 103.81%
% Remaining ([15]; 1 h): 103.14%
% Remaining ([15]; 2 h): 109.48%
% Remaining ([15]; 6 h): 101.64%
% Remaining ([15]; 24 h): 98.27%

From patent US20180346505A1, “MONONUCLEOTIDES HAVING A BIOREVERSIBLE DISULFIDE GROUP” (priority 2014, published 2018)
